Entries after “also recorded” stand apart in the source; their conditions may differ. Square brackets hold non-standard residues; d marks the D form. Peptide text beside a SMILES is read from it. Ac6c = NC1(C(=O)O)CCCCC1
Columns and labels:
E. coli 70S ribosome [1] = experiment: Competitive FP binding screening assay with Cf-ARV-1502 (relative FP); design: species or system E. coli BW25113; details: for Ribosome Binding (%): competitive ribosome binding against Cf-ARV-1502 (relative FP; values match 1.2 µmol/L peptide), low value = strong competition
Method: E. coli 70S ribosomes were prepared using a previously described protocol that was slightly modified. Briefly, E. coli BW25113 was cultivated in Luria-Bertani (LB) medium and cells were harvested after reaching an optical density of ~4 at 600 nm by centrifugation (5000× g, 15 min, 4 °C, Rotor JLA 8.100, Avanti J-20 XP, Beckmann Coulter, Krefeld, Germany). The cell pellets were frozen and stored at −80 °C. Cells were resuspended in ribosome buffer (2 mL/g cells; 20 mmol/L HEPES-KOH, 6 mmol/L MgCl2, 30 mmol/L NH4Cl, 4 mmol/L 2-mercaptoethanol, pH 7.6). Lysozyme (0.25 g/L cell suspension) was added, and the mixture was incubated on ice for 30 min. Cells were disrupted using the bead mill homogenizer FastPrep-24™ 5G (40 s, 4 m/s, 6 cycles, MP Biomedicals Germany GmbH, Eschwege, Germany) and zirconia/silica beads (0.1 mm diameter). The lysate was centrifuged (1500× g, 5 min, 4 °C, Rotor S4180, Allegra 21R, Beckmann Coulter) and the supernatant was incubated with DNase (5 U/mL) on ice for 60 min. The cell debris was removed by two centrifugation steps (16,000× g, 30 min, 4 °C followed by 32,000× g, 60 min, 4 °C, Rotor JA 30.50 Ti, Avanti J-30I, Beckmann Coulter). The ribosome was pelleted by ultracentrifugation (165,000× g, 17 h, 4 °C, Rotor 70 Ti, Optima LE-80K, Beckmann Coulter), resuspended in ribosome buffer (0.1 mL/g pellet), and stored at −80 °C. The ribosome concentration was determined by recording the absorbance of RNA at 260 nm (NanoPhotometer NP80, Implen GmbH, München, Germany) assuming that 1 AU corresponds to a ribosome concentration of 28 nmol/L. The molecular weight of the E. coli 70S ribosome was assumed to be 2.3 MDa.
E. coli 70S ribosomes and Cf-ARV-1502 were incubated with four different concentrations of unlabeled peptides chosen based on the IC50 curves of reference peptide ARV-1502. Each peptide was diluted in ribosome buffer to obtain a concentration of 4.8 µmol/L and transferred to a 384-well-plate. Peptides were then twofold serially diluted in four steps from 4.8 to 0.6 µmol/L (20 µL). The ribosome extract was diluted in ribosome buffer to reach a concentration of 2 µmol/L and 10 µL were added to each well to obtain a final ribosome concentration of 0.5 µmol/L. Plates were centrifuged (2 min, 500× g, Rotor S2096, Allegra^TM 21R, Beckmann Coulter) and incubated at 28 °C for 90 min. Cf-labeled ARV-1502 was added (10 µL; final concentration of 20 nmol/L) and the plates were again centrifuged and incubated (28 °C, 90 min). After incubation, fluorescence polarization was recorded on a […]^TM microplate reader (λex = 485 nm, λem = 535 nm).
On each plate 12 minimum (30 µL ribosome buffer and 10 µL Cf-ARV-1502) and 12 maximum (20 µL ribosome buffer, 10 µL ribosome solution and 10 µL Cf-ARV-1502) control samples were added. Fluorescence polarization of screening samples was normalized to the fluorescence polarization of these control samples. All screening samples were measured in triplicates and the whole experiment was repeated once on another day.

[2] = tested on: E. coli BW25113 ∆sbmA ∆mdtM; assay type: cell-based, Escherichia coli; details: for Minimal Inhibitory Concentration, 25% MHB2, ∆sbmA ∆mdtM: 25% MHB2, 37 °C; for Minimal Inhibitory Concentration, 25% MHB2, ∆sbmA ∆mdtM / Minimal Inhibitory Concentration, 33% TSB, ∆sbmA ∆mdtM: 20 h, at least duplicates on two days, * once on two days, ** duplicate on one day; for Minimal Inhibitory Concentration, 33% TSB, ∆sbmA ∆mdtM: 37 °C; for Effect of the additional mdtM knockout on antibacterial activity: ∆sbmA ∆mdtM compared with ∆sbmA
Method: MIC values were determined using a liquid broth micro dilution assay in sterile 96-well plates (polystyrene F-bottom, Greiner Bio-One GmbH) and a total volume of 100 μL per well. Aqueous peptide solutions (10 g/L) were serially twofold diluted in 25% Mueller-Hinton broth 2 (25% MBH2) or 33% tryptic soy broth (33% TSB) starting at a peptide concentration of 128 mg/L (50 μL/well). Overnight cultures of bacteria grown in 25% MHB2 (or 33% TSB) were diluted 30-fold in 25% MHB2 (or 33% TSB). After an incubation period of 4 h (37 °C, 200 rpm), cells were diluted to 1.5 × 10^7 cfu/mL, based on a McFarland test, and 50 μL were added to each well (final concentration of 7.5 × 10^6 […]). The plates were incubated (37 °C, 20 h) and the optical density was recorded at 595 nm using a microplate reader ([…]^TM, Beckmann Coulter). The MIC was defined as the lowest peptide concentration preventing visible bacterial growth.

E. coli 70S ribosome [3] = experiment: Cell-free GFP expression assay (in vitro translation); assay type: biochemical; details: for In Vitro Translation (%): GFP expression remaining relative to control, concentration not given (higher concentration 50 µmol/L)
Description: Possible effects of ARV-1502 and its substituted analogs on the in vitro translation of the green fluorescent protein (GFP) were probed using the NEB PureExpress Delta RF123 Kit (New England Biolabs, Ipswich, MA, USA). The sfGFP DNA template was amplified from pY71sfGFP plasmid by PCR introducing an UAA stop codon. Release factor 1 (RF1) was 50fold diluted in Pure System Buffer (PSB) containing magnesium acetate (1 mol/L), monopotassium phosphate (0.5 mol/L, pH 7.3), potassium glutamate (1 mol/L), NH4Cl (1 mol/L), calcium chloride (0.5 mol/L), spermidine (1 mol/L), putrescine (0.1 mol/L), and DTT (0.1 mol/L). Each reaction used 35 ng of sfGFP template. Peptides were added at a final concentration of 5 µmol/L and 50 µmol/L. The reaction was started by adding Kit solutions A (2 µL) and B (1.5 µL), diluted RF1 (0.5 µL), sfGFP template (0.25 µL or water as negative control), PSB (0.25 µL), and peptide (0.5 µL or water), mixed, transferred into a black 384-well plate (flat bottom, Greiner Bio-One GmbH), and incubated (37 °C, 2 h). The fluorescence was recorded every 10 min (λexc = 485 nm, λem = 535 nm) in a microplate reader (Gemini EM, Molecular Devices LLC, San Jose, CA, USA).

[4] = control without unlabeled peptide = 100%, 0.5 µmol/L ribosome, 20 nmol/L Cf-ARV-1502, triplicates, repeated once on another day

| Compound | Ribosome Binding (%) (E. coli 70S ribosome [1]) | Relative FP at 1.2 µmol/L unlabeled peptide (E. coli 70S ribosome [1]; [4]) [%] | Relative FP at 2.4 µmol/L unlabeled peptide (E. coli 70S ribosome [1]; [4]) [%] | Minimal Inhibitory Concentration, 25% MHB2, ∆sbmA ∆mdtM [2] [µg/mL] | Minimal Inhibitory Concentration, 33% TSB, ∆sbmA ∆mdtM [2] [µg/mL] | Effect of the additional mdtM knockout on antibacterial activity [2] | In Vitro Translation (%) (E. coli 70S ribosome [3]) | Reduction of GFP expression, 50 µmol/L peptide (E. coli 70S ribosome [3]; cell-free expression, peptide-to-ribosome ratio of 25, GFP fluorescence, 37 °C) | IC50 (E. coli 70S ribosome [3]; in vitro translation, Supplementary Figure S2, reference 4 is also given at the place, read-out: IC50 of inhibition of GFP expression) [nM] | Inhibition of Cf-ARV-1502 binding to the 70S ribosome (in words) (E. coli 70S ribosome [1]; Figure 3: peptide concentration 1.2 µmol/L) | Reduction of GFP fluorescence intensity, 10-fold lower concentration (5 µmol/L peptide) (E. coli 70S ribosome [3]; cell-free expression, 2.5-fold peptide excess, 37 °C) [%] |
| --- | --- | --- | --- | --- | --- | --- | --- | --- | --- | --- | --- |
| CC(C)C[C@H](NC(=O)[C@H](Cc1ccc(O)cc1)NC(=O)[C@@H]1CCCN1C(=O)[C@H](CCCNC(=N)N)NC(=O)[C@@H]1CCCN1C(=O)[C@H](CCCCN)NC(=O)[C@H](CC(=O)O)NC(=O)[C@@H]1CCCN1C(=O)[C@H](CCCNC(=N)N)NC(=O)C1(N)CCCCC1)C(=O)N1CCC[C@H]1C(=O)N[C@@H](CCCNC(=N)N)C(=O)N1CCC[C@H]1C(=O)N[C@@H](CCCNC(=N)N)C(=O)N1CCC[C@H]1C(=O)N1CCC[C@H]1C(=O)N[C@@H](CCCNC(=N)N)C(=O)N1CCC[C@H]1C(=O)N[C@H](C(=O)N[C@@H](CCCNC(=N)N)C(N)=O)C(C)C [ARV-1502] (H-[Ac6c]RPDKPRPYLPRPRPPRPVR-NH2) | 40.9 ± 3.9 | 40.9 ± 3.9 | 32.1 ± 1.3 | 64 | 128 | further decreased | 105.8 ± 0.9 | no significant effects; also recorded: not at all | – | – | – |
| CC[C@H](C)[C@H](NC(=O)[C@@H](CCCNC(=N)N)NC(=O)[C@H](CCCNC(=N)N)NC(=O)[C@@H]1CCCN1C(=O)[C@@H]1CCCN1C(=O)[C@H](CCCNC(=N)N)NC(=O)[C@@H]1CCCN1C(=O)[C@H](CCCNC(=N)N)NC(=O)[C@@H]1CCCN1C(=O)[C@H](CC(C)C)NC(=O)[C@H](Cc1ccc(O)cc1)NC(=O)[C@@H]1CCCN1C(=O)[C@@H]1CCCN1C(=O)[C@H](CCCCN)NC(=O)[C@H](CC(=O)O)NC(=O)[C@@H](N)C(C)C)C(=O)N[C@@H](Cc1ccc(O)cc1)C(=O)N[C@@H](CC(N)=O)C(=O)N[C@H](CCCNC(=N)N)C(N)=O [Onc112, reference compound] (H-VDKPPYLPRPRPPR[dR]IYN[dR]-NH2; N-terminus and C-terminus assumed) | 32.1 ± 1.0 | – | – | 64 | 128 | weakened the activity | 4.9 ± 0.3 | – | 150 | – | – |
| CC(C)C[C@H](NC(=O)[C@H](Cc1ccc(O)cc1)NC(=O)[C@@H]1CCCN1C(=O)[C@H](CCCNC(=N)N)NC(=O)[C@@H]1CCCN1C(=O)[C@H](CCCCN)NC(=O)[C@H](CCCCN)NC(=O)[C@@H]1CCCN1C(=O)[C@H](CCCNC(=N)N)NC(=O)C1(N)CCCCC1)C(=O)N1CCC[C@H]1C(=O)N[C@@H](CCCNC(=N)N)C(=O)N1CCC[C@H]1C(=O)N[C@@H](CCCNC(=N)N)C(=O)N1CCC[C@H]1C(=O)N1CCC[C@H]1C(=O)N[C@@H](CCCNC(=N)N)C(=O)N1CCC[C@H]1C(=O)N[C@H](C(=O)N[C@@H](CCCNC(=N)N)C(N)=O)C(C)C [Peptide 2] (H-[Ac6c]RPKKPRPYLPRPRPPRPVR-NH2; N-terminus and C-terminus assumed) | 40.3 ± 2.2 | – | – | – | – | no effect | 53.2 ± 8.2 | – | – | did not reduce the competition with Cf-ARV-1502 | 22 |

From PMC8950706, “Influence of Substitutions in the Binding Motif of Proline-Rich Antimicrobial Peptide ARV-1502 on 70S Ribosome Binding and Antimicrobial Activity” (International Journal of Molecular Sciences, 2022)
